Source: BigSolDB 2.1

Clc1ccccc1C(c1ccccc1)(c1ccccc1)n1ccnc1
solubility (mole fraction)
Conditions	293.15 K	298.15 K	303.15 K	308.15 K	313.15 K
in n-hexane	0.000222	0.000267	0.000319	0.000383	0.000455
in n-octanol	0.0204	0.0249	0.0304	0.0372	0.045
